Measured values published in ChEMBL document CHEMBL4373655, “Aminopyrimidine-galactose hybrids are highly selective galectin-3 inhibitors” (Medchemcomm, 2019).

Experiments:
[1] = Solubility of the compound in DMSO at >[…] uM; type: physicochemical
[2] = Solubility of the compound in DMSO up to 900 uM; type: physicochemical

SMILES | solubility [1] | solubility [2]
CO[C@@H]1O[C@H](CO)[C@H](O)[C@H](OCc2cc(-c3ccc(Br)cc3)nc(N)n2)[C@H]1O | Insoluble | Soluble
CO[C@@H]1O[C@H](CO)[C@H](O)[C@H](OCc2cc(-c3cccc(F)c3)nc(N)n2)[C@H]1O | Insoluble | Soluble
CO[C@@H]1O[C@H](CO)[C@H](O)[C@H](OCc2cc(-c3ccc(F)cc3)nc(N)n2)[C@H]1O | Insoluble | Soluble
CO[C@@H]1O[C@H](CO)[C@H](O)[C@H](OCc2cc(-c3ccc(C(C)(C)C)cc3)nc(N)n2)[C@H]1O | Insoluble | Soluble
CO[C@@H]1O[C@H](CO)[C@H](O)[C@H](OCc2cc(-c3ccccc3F)nc(N)n2)[C@H]1O | Insoluble | Soluble
CO[C@@H]1O[C@H](CO)[C@H](O)[C@H](OCc2cc(-c3cccc(Cl)c3)nc(N)n2)[C@H]1O | Insoluble | Soluble
CO[C@@H]1O[C@H](CO)[C@H](O)[C@H](OCc2cc(-c3cccc4ccccc34)nc(N)n2)[C@H]1O | Insoluble | Soluble

Second part, the molecule after the results:

solubility [1] | solubility [2] | SMILES
Insoluble | Soluble | CO[C@@H]1O[C@H](CO)[C@H](O)[C@H](OCc2cc(-c3ccc(-c4ccccc4)cc3)nc(N)n2)[C@H]1O
Insoluble | Soluble | CO[C@@H]1O[C@H](CO)[C@H](O)[C@H](OCc2cc(-c3ccc(C)cc3)nc(N)n2)[C@H]1O
Insoluble | Soluble | CO[C@@H]1O[C@H](CO)[C@H](O)[C@H](OCc2cc(-c3ccccc3)nc(N)n2)[C@H]1O
Insoluble | Soluble | CO[C@@H]1O[C@H](CO)[C@H](O)[C@H](OCc2cc(-c3cccc(C)c3)nc(N)n2)[C@H]1O
Insoluble | Soluble | CO[C@@H]1O[C@H](CO)[C@H](O)[C@H](OCc2cc(-c3ccc(Cl)cc3)nc(N)n2)[C@H]1O
Insoluble | Soluble | CO[C@@H]1O[C@H](CO)[C@H](O)[C@H](OCc2cc(-c3cccc(-c4ccccc4)c3)nc(N)n2)[C@H]1O
Insoluble | Soluble | CO[C@@H]1O[C@H](CO)[C@H](O)[C@H](OCc2cc(-c3ccc4ccccc4c3)nc(N)n2)[C@H]1O
